Holding throughout (assay): DTP human tumour cell line panel, 48 h
For experiment [1], the system named is Malme-3M.
For experiment [2], the system named is COLO 205.
The subject of experiment [3] is SK-OV-3.
In experiment [4] the test system is HCT-116.
Experiment [5] has as its system HOP-62.
The test system of experiment [6] is NCI-H522.
Experiment [7] relates to OVCAR-4.
For experiment [8], the system named is NCI-H23.
For experiment [9], the system named is PC-3.
In experiment [10] the test system is SK-MEL-28.
Experiment [11] has as its system HCT-15.
Experiment [12] concerns UO-31.
For experiment [13], the system named is HT-29.
In experiment [14] the test system is A498.
Experiment [15] has as its system OVCAR-8.
Experiment [16] concerns ACHN.
Experiment [17] relates to HL-60.
In experiment [18] the test system is UACC-257.
For experiment [19], the system named is IGROV-1.
Experiment [20] concerns HCC 2998.

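A five-concentration, 48-hour dose response in 96-well plates underlies each endpoint, interpolated linearly between surrounding concentrations. GI50: concentration for 50% inhibition of growth.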 Calls of active or inactive are those of the source. Rule as the data show it: active = GI50 up to about 1.1 µM and inactive = higher.

Turning to `CCNCCCNc1c2ccccc2nc2ccccc12`, the concentration for 50% growth inhibition (GI50) – broadly, the concentration giving 50% growth inhibition – is 406 nM (active) in experiment [1]; 232 nM (active) in experiment [2]; 1330 nM (inactive) in experiment [3]; 365 nM (active) in experiment [4]; 402 nM (active) in experiment [5]; 183 nM (active) in experiment [6]. Moreover, the 50% growth inhibitory concentration (GI50) in [7] is 478 nM (active); in [8], 446 nM (active); in experiment [9], 245 nM (active); in experiment [10] it was 401 nM (active); in experiment [11] it was 366 nM; in [12], 334 nM (active). The GI50 is 219 nM (active) in [13]; 631 nM (active) in experiment [14]; 349 nM (active) in [15]; 136 nM (active) in [16]; 493 nM (active) in experiment [17]; 424 nM (active) in experiment [18]. The figures for the GI50 in experiment [19] and in experiment [20] were 480 nM (active) and 239 nM (active), respectively.
On to `Cc1cc(S(=O)(=O)N=C2N(Cc3ccccc3)CCN2Cc2ccccc2)c(S)cc1Cl`, for which the GI50 in [1] is > 100000 nM (inactive); in [2], > 100000 nM (inactive); in experiment [3] it was > 100000 nM (inactive); in experiment [4] it was > 100000 nM (inactive); in [5], > 100000 nM (inactive); in experiment [6], 40600 nM (inactive). Moreover, the GI50 in [7] is > 100000 nM (inactive); in [8], > 100000 nM (inactive); in [9], 27700 nM (inactive); in experiment [10] it was > 100000 nM (inactive); in experiment [11], above 100000 nM; in experiment [12] it was 17700 nM (inactive). The GI50 in [13] was > 100000 nM (inactive); in experiment [14], > 100000 nM (inactive); in experiment [15], > 100000 nM (inactive); in [16], > 10000 nM (inactive); in [17] it was > 100000 nM (inactive); in experiment [18], > 100000 nM (inactive). Further, the GI50 in experiment [19] and in [20] was > 100000 nM (inactive) each time.
Turning to `COc1cc(/C=C2\CCC(C)C3=C(c4cc(OC)c(OC)c(OC)c4)C(C#N)=C(N)OC32)cc(OC)c1OC` (stereo not given), the GI50 in experiment [1] is 2590 nM (inactive); in experiment [2] it was 2110 nM (inactive); in experiment [3] it was 5320 nM (inactive); in experiment [4] it was 2200 nM (inactive); in experiment [5], 7450 nM (inactive); in experiment [6] it was 2420 nM (inactive). Also, the GI50 in experiment [7] was 2970 nM (inactive); in experiment [8], 3720 nM (inactive); in experiment [9], 1830 nM (inactive); in experiment [10], 2850 nM (inactive); in experiment [11], 2080 nM; in experiment [12], 3920 nM (inactive). For the same compound, the GI50 was 2000 nM (inactive) in experiment [13]; 4000 nM (inactive) in experiment [14]; 3300 nM (inactive) in experiment [15]; 3890 nM (inactive) in experiment [16]; 1670 nM (inactive) in [17]; 4320 nM (inactive) in experiment [18]. Besides, the results for the GI50 in experiment [19] and in experiment [20] were 4940 nM (inactive) and 4160 nM (inactive), respectively.
As to `O=C(O)c1ccc(C(=O)Nc2cccc3ccccc23)c(C(=O)O)c1`, the GI50 in experiment [1], in experiment [2], in [3], in experiment [4], in [5] and in experiment [6] was > 100000 nM (inactive) each time. Also, the GI50 was > 100000 nM (inactive) in experiment [7]; > 100000 nM (inactive) in experiment [8]; > 100000 nM (inactive) in experiment [9]; > 100000 nM (inactive) in [10]; above 100000 nM in experiment [11]; > 100000 nM (inactive) in experiment [12]. The GI50 in experiment [13], in experiment [14], in experiment [15], in experiment [16], in [17] and in experiment [18] was > 100000 nM (inactive) in each case. The GI50 in [19] and in [20] was > 100000 nM (inactive) each time.
On to `c1ccc(C(=NNc2cnc3ccccc3n2)c2ccccn2)cc1`, for which the 50% growth inhibitory concentration (GI50) was 532 nM (active) in experiment [1]; 119 nM (active) in [2]; 3780 nM (inactive) in experiment [3]; 1760 nM (inactive) in experiment [4]; 7260 nM (inactive) in [5]; 419 nM (active) in [6]. Moreover, the GI50 is 3890 nM (inactive) in [7]; 2610 nM (inactive) in [8]; 2560 nM (inactive) in [9]; 12300 nM (inactive) in [10]; 424 nM in experiment [11]; 760 nM (active) in [12]. Also, the GI50 was 48 nM (active) in experiment [13]; 20900 nM (inactive) in [14]; 352 nM (active) in experiment [15]; 405 nM (active) in experiment [16]; 109 nM (active) in experiment [17]; 418 nM (active) in [18]. For the same compound, the values for the GI50 in [19] and in [20] were 1750 nM (inactive) and 4410 nM (inactive), respectively.
Turning to `NNC(=O)c1nnn(N)c1S`, the GI50 in experiment [1], in experiment [2], in experiment [3], in experiment [4], in experiment [5] and in experiment [6] was > 100000 nM (inactive) each time. In addition, the GI50 in experiment [7] is > 100000 nM (inactive); in [8] it was > 100000 nM (inactive); in [9] it was > 100000 nM (inactive); in experiment [10], > 100000 nM (inactive); in experiment [11] it was above 100000 nM; in experiment [12], > 100000 nM (inactive). The GI50 was > 100000 nM (inactive) in [13]; > 100000 nM (inactive) in experiment [14]; > 100000 nM (inactive) in experiment [15]; > 100000 nM (inactive) in experiment [16]; 1000 nM (active) in [17]; > 100000 nM (inactive) in experiment [18]. Besides, the GI50 in experiment [19] and in experiment [20] was > 100000 nM (inactive) each time.
Turning to `COc1c(CC=C(C)C)c(O)c(C(CC(C)C)c2c(O)c(CC=C(C)C)c(O)c(C(C)=O)c2O)c(O)c1C(C)=O` (stereo not given), the GI50 in experiment [1] was 638 nM (active); in experiment [2] it was 564 nM (active); in experiment [3] it was 2080 nM (inactive); in experiment [4] it was 325 nM (active); in [5], 1400 nM (inactive); in [6] it was 200 nM (active). Besides, the GI50 was 1440 nM (inactive) in [7]; 275 nM (active) in experiment [8]; 305 nM (active) in experiment [9]; 695 nM (active) in experiment [10]; 400 nM in experiment [11]; 3080 nM (inactive) in experiment [12]. Besides, the concentration for 50% growth inhibition (GI50) was 723 nM (active) in experiment [13]; 84.3 nM (active) in experiment [14]; 385 nM (active) in [15]; 1100 nM (active) in experiment [16]; 767 nM (active) in experiment [17]; 1450 nM (inactive) in experiment [18]. In addition, the figures for the GI50 in experiment [19] and in experiment [20] were 1700 nM (inactive) and 537 nM (active), respectively.
In the case of `COc1cc(C2c3cc4c(cc3OC(NCCO)C2C)OCO4)cc(OC)c1OC` (stereo not given), the concentration for 50% growth inhibition (GI50) in experiment [1] was 431 nM (active); in [2], 526 nM (active); in experiment [3], 553 nM (active); in experiment [4] it was 364 nM (active); in experiment [5] it was 289 nM (active); in experiment [6], 241 nM (active). Further, the GI50 in [7] is 12700 nM (inactive); in experiment [8], 1190 nM (inactive); in experiment [9], 418 nM (active); in experiment [10] it was 713 nM (active); in experiment [11], 347 nM; in experiment [12], 1520 nM (inactive). For the same compound, the GI50 in experiment [13] is 369 nM (active); in experiment [14], 325 nM (active); in experiment [15] it was 2200 nM (inactive); in experiment [16], 755 nM (active); in [17], 309 nM (active); in experiment [18], 1610 nM (inactive). Besides, the figures for the GI50 in experiment [19] and in experiment [20] were 687 nM (active) and 824 nM (active), respectively.
Regarding `COc1cc(/C=C/c2ccccn2)cc(OC)c1OC`, the GI50 in experiment [1], in experiment [2], in experiment [3], in experiment [4], in experiment [5] and in experiment [6] was > 10000 nM (inactive) in each case. Further, the GI50 in experiment [7] was > 10000 nM (inactive); in experiment [8], > 10000 nM (inactive); in experiment [9], > 10000 nM (inactive); in experiment [10], > 10000 nM (inactive); in [11] it was above 10000 nM; in experiment [12], > 10000 nM (inactive). For the same compound, the GI50 in experiment [13], in experiment [14], in experiment [15], in [16], in experiment [17] and in [18] was > 10000 nM (inactive) in each case. Also, the GI50 in [19] and in experiment [20] was > 10000 nM (inactive) in each case.
As to `COc1ccc2c(c1)C(OC)C1c3c(cc4c(c3-2)OCO4)CCN1C` (stereo not given), the GI50 in experiment [1] is 2000 nM (inactive); in experiment [2], 2790 nM (inactive); in experiment [3], 4500 nM (inactive); in experiment [4], 2100 nM (inactive); in experiment [5], 2430 nM (inactive); in experiment [6], 1560 nM (inactive). Further, the GI50 in experiment [7] is 2320 nM (inactive); in [8] it was 2800 nM (inactive); in [9] it was 2600 nM (inactive); in [10] it was 3880 nM (inactive); in [11], 2130 nM; in [12], 1670 nM (inactive). Moreover, the GI50 in [13] was 2210 nM (inactive); in experiment [14] it was 1820 nM (inactive); in [15], 2500 nM (inactive); in [16], 1820 nM (inactive); in experiment [17] it was 1240 nM (inactive); in [18], 3380 nM (inactive). In addition, the GI50 was 2880 nM (inactive) in experiment [19] and 3400 nM (inactive) in experiment [20].

The values are drawn from ChEMBL document CHEMBL1201862, “PubChem BioAssay data set” (2004).
